Laboratory results from PubChem BioAssay AID248 (DTP/NCI, 2004).
Values joined by “and” are separate entries in the source; they are usually repeats but may differ in a detail not shown here. Equal values may be shown once. Toxic doses and inconclusive results are not listed. No stated cut-off is given here; in the data, active means T/C of 150% or more; inactive means T/C below 125%.

Test system: L1210 leukemia ip in BDF1 mice, survival T/C
Assay: NCI In Vivo Anticancer Drug Screen. Data for tumor model L1210 Leukemia (intraperitoneal) in B6D2F1 (BDF1) mice
Details: endpoint: mean survival time, higher = longer survival
Method in brief: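 In this screen, tumor-bearing mice given compound are compared to those given vehicle, and their survival values are reported as a treated-to-control quotient.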

[1] = dose: 100.0 mg/kg/injection, schedule: Q01DX001 (ip), vehicle: carboxymethylcellulose (CMC)
[2] = dose: 200.0 mg/kg/injection, schedule: Q01DX001 (ip), vehicle: carboxymethylcellulose (CMC)
[3] = dose: 400.0 mg/kg/injection, schedule: Q01DX001 (ip), vehicle: carboxymethylcellulose (CMC)
[4] = dose: 50.0 mg/kg/injection, schedule: Q01DX001 (ip), vehicle: carboxymethylcellulose (CMC)
[5] = dose: 100.0 mg/kg/injection, schedule: Q01DX009 (ip), vehicle: Klucel (hydroxypropylcellulose) (HPC)
[6] = dose: 100.0 mg/kg/injection, schedule: Q04DX003 (ip), vehicle: Klucel (hydroxypropylcellulose) (HPC)
[7] = dose: 400.0 mg/kg/injection, schedule: Q04DX003 (ip), vehicle: Klucel (hydroxypropylcellulose) (HPC)
[8] = dose: 200.0 mg/kg/injection, schedule: Q04DX003 (ip), vehicle: Klucel (hydroxypropylcellulose) (HPC)
[9] = dose: 100.0 mg/kg/injection, schedule: Q04DX002 (ip), vehicle: Klucel (hydroxypropylcellulose) (HPC)
[10] = dose: 200.0 mg/kg/injection, schedule: Q04DX002 (ip), vehicle: Klucel (hydroxypropylcellulose) (HPC)

Measured: T/C

CC(=O)Nc1ccc(S(C)(=O)=O)cc1I
inactive: [1] 93 % of control | [2] 96 % of control | [3] 91 % of control

N#CC(C#N)=Cc1cccc([N+](=O)[O-])c1
inactive: [4] 102 % of control | [1] 102 % of control | [5] 97 % of control | [6] 102 % of control | [7] 106 % of control

C/C=C/C=C/COC(=O)CCCCCC
inactive: dose: 100.0 mg/kg/injection, schedule: Q04DX002 (ip), vehicle: saline 98 % of control and 108 % of control | dose: 200.0 mg/kg/injection, schedule: Q04DX002 (ip), vehicle: saline 108 % of control and 119 % of control | dose: 400.0 mg/kg/injection, schedule: Q04DX002 (ip), vehicle: saline 107 % of control | dose: 600.0 mg/kg/injection, schedule: Q04DX002 (ip), vehicle: saline 98 % of control

COc1ccc(CN2CCN(Cc3ccc(OC)c(OC)c3)C2c2ccc(OC)c(OC)c2)cc1OC
inactive: dose: 100.0 mg/kg/injection, schedule: Q01DX009 (ip), vehicle: saline with Tween-80 94 % of control | dose: 100.0 mg/kg/injection, schedule: Q04DX003 (ip), vehicle: saline with Tween-80 102 % of control | dose: 200.0 mg/kg/injection, schedule: Q01DX009 (ip), vehicle: saline with Tween-80 104 % of control | dose: 200.0 mg/kg/injection, schedule: Q04DX003 (ip), vehicle: saline with Tween-80 93 % of control | dose: 400.0 mg/kg/injection, schedule: Q01DX009 (ip), vehicle: saline with Tween-80 108 % of control | dose: 400.0 mg/kg/injection, schedule: Q04DX003 (ip), vehicle: saline with Tween-80 91 % of control

N#CCCCc1ccc(C(=O)O)cc1
inactive: [1] 95 % of control | [2] 100 % of control | [3] 97 % of control

C=CCSCn1ncc2ccc([N+](=O)[O-])cc21
inactive: dose: 100.0 mg/kg/injection, schedule: Q01DX001 (ip), vehicle: saline 94 % of control | dose: 200.0 mg/kg/injection, schedule: Q01DX001 (ip), vehicle: saline 92 % of control | dose: 400.0 mg/kg/injection, schedule: Q01DX001 (ip), vehicle: saline 96 % of control

CCOC(=O)c1cnc(SC)nc1Nc1cccc(Cl)c1
inactive: [5] 97 % of control | [6] 90 % of control | [8] 92 % of control | dose: 400.0 mg/kg/injection, schedule: Q01DX009 (ip), vehicle: Klucel (hydroxypropylcellulose) (HPC) 90 % of control | [7] 88 % of control

O=[N+]([O-])c1ccc2c(c1)-c1ccccc1/C2=C1\c2ccccc2-c2cc([N+](=O)[O-])ccc21
inactive: dose: 100.0 mg/kg/injection, schedule: Q01DX005 (ip), vehicle: Klucel (hydroxypropylcellulose) (HPC) 105 % of control | [9] 90 % of control | dose: 200.0 mg/kg/injection, schedule: Q01DX005 (ip), vehicle: Klucel (hydroxypropylcellulose) (HPC) 91 % of control | [10] 104 % of control | dose: 400.0 mg/kg/injection, schedule: Q01DX005 (ip), vehicle: Klucel (hydroxypropylcellulose) (HPC) 91 % of control | dose: 400.0 mg/kg/injection, schedule: Q04DX002 (ip), vehicle: Klucel (hydroxypropylcellulose) (HPC) 96 % of control

C/C=C/C(=O)Nc1ccccc1
inactive: [4] 97 % of control | [1] 100 % of control | [2] 113 % of control

CCC/C(=N\Nc1ccc([N+](=O)[O-])cc1[N+](=O)[O-])c1cccc([N+](=O)[O-])c1
inactive: [6] 93 % of control | [8] 92 % of control | [7] 97 % of control

OCC(O)C(O)C(O)/C=N\Nc1ccc(Br)cc1 (centres undefined)
inactive: dose: 50.0 mg/kg/injection, schedule: Q04DX002 (ip), vehicle: saline with Tween-80 93 % of control | dose: 100.0 mg/kg/injection, schedule: Q04DX002 (ip), vehicle: saline with Tween-80 95 % of control | dose: 200.0 mg/kg/injection, schedule: Q04DX002 (ip), vehicle: saline with Tween-80 87 % of control

O=C1C=CC(=O)N1c1ccc(Br)c(Cl)c1
inactive: dose: 12.5 mg/kg/injection, schedule: Q04DX002 (ip), vehicle: other 121 % of control | dose: 25.0 mg/kg/injection, schedule: Q04DX002 (ip), vehicle: other 105 % of control | dose: 50.0 mg/kg/injection, schedule: Q04DX002 (ip), vehicle: other 112 % of control

C1CN2CCN1CC2
inactive: dose: 37.5 mg/kg/injection, schedule: Q01DX009 (ip), vehicle: Klucel (hydroxypropylcellulose) (HPC) 91 % of control | dose: 75.0 mg/kg/injection, schedule: Q01DX009 (ip), vehicle: Klucel (hydroxypropylcellulose) (HPC) 91 % of control | dose: 150.0 mg/kg/injection, schedule: Q01DX009 (ip), vehicle: Klucel (hydroxypropylcellulose) (HPC) 89 % of control | dose: 300.0 mg/kg/injection, schedule: Q01DX009 (ip), vehicle: Klucel (hydroxypropylcellulose) (HPC) 94 % of control

CC(CNC1CCCCC1)OC(=O)c1ccc(N)cc1 (centres undefined)
inactive: dose: 75.0 mg/kg/injection, schedule: Q01DX001 (ip), vehicle: saline 100 % of control

O=C1NC(=O)C2C3CCC(O3)C12 (centres undefined)
inactive: dose: 25.0 mg/kg/injection, schedule: Q04DX002 (ip), vehicle: Klucel (hydroxypropylcellulose) (HPC) 92 % of control and 98 % of control | dose: 50.0 mg/kg/injection, schedule: Q04DX002 (ip), vehicle: Klucel (hydroxypropylcellulose) (HPC) 96 % of control and 102 % of control | dose: 55.0 mg/kg/injection, schedule: Q01DX Z (ip), vehicle: methylcellulose (MC) 98 % of control | dose: 83.0 mg/kg/injection, schedule: Q01DX Z (ip), vehicle: methylcellulose (MC) 105 % of control | [9] 103 % of control and 98 % of control and 86 % of control | dose: 125.0 mg/kg/injection, schedule: Q01DX Z (ip), vehicle: methylcellulose (MC) 94 % of control | [10] 106 % of control

COC1=CCC2=C(CCO2)C1
inactive: dose: 100.0 mg/kg/injection, schedule: Q04DX003 (ip), vehicle: acetone 95 % of control | dose: 200.0 mg/kg/injection, schedule: Q04DX003 (ip), vehicle: acetone 95 % of control | dose: 400.0 mg/kg/injection, schedule: Q04DX003 (ip), vehicle: acetone 96 % of control

CC(C)NNC(C)Cc1ccccc1 (centres undefined)
inactive: dose: 25.0 mg/kg/injection, schedule: Q04DX003 (ip), vehicle: Klucel (hydroxypropylcellulose) (HPC) 104 % of control | dose: 50.0 mg/kg/injection, schedule: Q04DX003 (ip), vehicle: Klucel (hydroxypropylcellulose) (HPC) 102 % of control | [6] 98 % of control

Cc1ccc(S(=O)(=O)Oc2cc([N+](=O)[O-])ccc2N)cc1
inactive: dose: 100.0 mg/kg/injection, schedule: Q01DX009 (ip), vehicle: saline 103 % of control | dose: 200.0 mg/kg/injection, schedule: Q01DX009 (ip), vehicle: saline 105 % of control | dose: 400.0 mg/kg/injection, schedule: Q01DX009 (ip), vehicle: saline 100 % of control

CCOC(=O)c1ccc(OC(=O)Nc2ccc(Cl)c([N+](=O)[O-])c2)cc1
inactive: dose: 50.0 mg/kg/injection, schedule: Q01DX009 (ip), vehicle: Klucel (hydroxypropylcellulose) (HPC) 94 % of control | [5] 90 % of control | [6] 100 % of control | dose: 200.0 mg/kg/injection, schedule: Q01DX009 (ip), vehicle: Klucel (hydroxypropylcellulose) (HPC) 92 % of control | [8] 94 % of control

COc1ccc(C)cc1N=Nc1cc(C)ccc1OC
inactive: dose: 100.0 mg/kg/injection, schedule: Q01DX009 (ip), vehicle: gum acacia 100 % of control | dose: 100.0 mg/kg/injection, schedule: Q04DX003 (ip), vehicle: gum acacia 91 % of control | dose: 200.0 mg/kg/injection, schedule: Q01DX009 (ip), vehicle: gum acacia 91 % of control | dose: 200.0 mg/kg/injection, schedule: Q04DX003 (ip), vehicle: gum acacia 86 % of control | dose: 400.0 mg/kg/injection, schedule: Q01DX009 (ip), vehicle: gum acacia 88 % of control | dose: 400.0 mg/kg/injection, schedule: Q04DX003 (ip), vehicle: gum acacia 92 % of control
